Reference: patent publication US10687531B2, “Urea and thiourea substituted bicycles derivatives as pesticides” (SYNGENTA PARTICIPATIONS AG, priority 2016, dated 2020)

Experiments:
Plutella xylostella = assay: Example B2: Plutella xylostella (diamond back moth), artificial diet, L2 larvae; type: in vivo; conditions: 120 h, application rate 200 ppm, 5 days after infestation, read-out: effect in at least one of the two categories (mortality or growth inhibition)
Description: Example B2: Plutella xylostella (Diamond Back Moth)
(§1) 24-well microtiter plates with artificial diet were treated with aqueous test solutions prepared from 10,000 ppm DMSO stock solutions by pipetting. After drying, the plates were infested with L2 larvae (10 to 15 per well). The samples were assessed for mortality and growth inhibition in comparison to untreated samples 5 days after infestation.

Diabrotica balteata = assay: Example B3: Diabrotica balteata (corn root worm), maize sprouts, L2 larvae; type: in vivo; conditions: 96 h, application rate 200 ppm, 4 days after infestation, read-out: effect in at least one of the two categories (mortality or growth inhibition)
Description: Example B3: Diabrotica balteata (Corn Root Worm)
as §1, with “Maize sprouts, placed on an agar layer in 24-well” for “24-well”, “plates” for “plates with artificial diet”, “spraying.” for “pipetting.”, “(6” for “(10”, “10” for “15”, “4” for “5”

Spodoptera littoralis = assay: Example B1: Spodoptera littoralis (Egyptian cotton leaf worm), cotton leaf disc spray, L1 larvae; type: in vivo; conditions: foliar, 72 h, application rate 200 ppm, 3 days after infestation, read-out: control (at least one of mortality, anti-feedant effect, growth inhibition)
Description: Example B1: Spodoptera littoralis (Egyptian Cotton Leaf Worm)
Cotton leaf discs were placed on agar in 24-well microtiter plates and sprayed with aqueous test solutions prepared from 10,000 ppm DMSO stock solutions. After drying, the leaf discs were infested with five L1 larvae. The samples were assessed for mortality, anti-feedant effect, and growth inhibition in comparison to untreated samples 3 days after infestation. Control of Spodoptera littoralis by a test sample is when at least one of mortality, anti-feedant effect, and growth inhibition is higher than the untreated sample.

Euschistus heros = assay: Example B4: Euschistus heros, soybean leaf spray, N-2 nymphs; type: in vivo; conditions: 120 h, application rate 200 ppm, 5 days after infestation, read-out: effect in at least one of the two categories (mortality or growth inhibition)
Description: Example B4: Euschistus heros
Soybean leaf on agar in 24-well microtiter plates were sprayed with aqueous test solutions prepared from 10,000 ppm DMSO stock solutions. After drying the leaf were infested with N-2 nymphs. The samples were assessed for growth inhibition in comparison to untreated samples 5 days after infestation.

Thrips tabaci = assay: Example B5: Thrips tabaci (onion thrips), sunflower leaf disc spray; type: in vivo; conditions: foliar, 144 h, application rate 200 ppm, 6 days after infestation, mixed ages
Description: Example B5: Thrips tabaci (Onion Thrips)
(§2) Sunflower leaf discs were placed on agar in 24-well microtiter plates and sprayed with aqueous test solutions prepared from 10,000 ppm DMSO stock solutions. After drying the leaf discs were infested with a thrips population of mixed ages. The samples were assessed for mortality 6 days after infestation.

[1] = tested on: Frankliniella occidentalis; assay: Example B6: Frankliniella occidentalis (western flower thrips), sunflower leaf disc spray; type: in vivo; conditions: foliar, 168 h, application rate 200 ppm, 7 days after infestation, mixed ages
Description: Example B6: Frankliniella occidentalis (Western Flower Thrips)
as §2, with “10,000” for “10,000 ppm”, “Frankliniella” for “thrips”, “7” for “6”

With Cc1cccc(C)c1N1CS/C1=N\c1ncc2cc(-c3ncn(-c4ccc(OC(F)(F)F)cc4)n3)ccc2n1 [Compound P2.8, 3-(2,6-dimethylphenyl)-N-[6-[1-[4-(trifluoromethoxy)phenyl]-1,2,4-triazol-3-yl]quinazolin-2-yl]-1,3-thiazetidin-2-imine] the melting point was 227 to 229 °C.
CC(C)c1ccccc1NC(=O)Nc1ccc2cc(-c3ncn(-c4ccc(OC(F)(F)F)cc4)n3)ccc2n1 [Compound P1.3, 1-(2-isopropylphenyl)-3-[6-[1-[4-(trifluoromethoxy)phenyl]-1,2,4-triazol-3-yl]-2-quinolyl]urea] showed a percent control (mortality or growth inhibition) at 200 ppm (Plutella xylostella) of no less than 80% and a percent effect (mortality or growth inhibition) at 200 ppm (Diabrotica balteata) of no less than 80%.
CC(C)c1ccccc1NC(=S)Nc1ccc2cc(-c3ncn(-c4ccc(OC(F)(F)F)cc4)n3)ccc2n1 [Compound P1.4, 1-(2-isopropylphenyl)-3-[6-[1-[4-(trifluoromethoxy)phenyl]-1,2,4-triazol-3-yl]-2-quinolyl]thiourea] gave a percent control (mortality or growth inhibition) at 200 ppm (Plutella xylostella) of no less than 80%, a percent effect (mortality or growth inhibition) at 200 ppm (Diabrotica balteata) of no less than 80% and a control at 200 ppm (Spodoptera littoralis) of no less than 80%.
Compound Cc1cccc(C)c1N1/C(=N/c2ncc3cc(-c4ncn(-c5ccc(OC(F)(F)F)cc5)n4)ccc3n2)SCC1(C)O (stereo not shown) [Compound P2.7, (2Z)-3-(2,6-dimethylphenyl)-4-methyl-2-[6-[1-[4-(trifluoromethoxy)phenyl]-1,2,4-triazol-3-yl]quinazolin-2-yl]imino-thiazolidin-4-ol] has a percent effect (mortality or growth inhibition) at 200 ppm (Euschistus heros) of no less than 80% and a percent effect (mortality or growth inhibition) at 200 ppm (Diabrotica balteata) of no less than 80%.
In the case of Cc1cccc(C)c1N1CS/C1=N\c1nc2ccc(-c3ncn(-c4ccc(OC(F)(F)F)cc4)n3)cc2s1 [Compound P2.14, 3-(2,6-dimethylphenyl)-N-[6-[1-[4-(trifluoromethoxy)phenyl]-1,2,4-triazol-3-yl]-1,3-benzothiazol-2-yl]-1,3-thiazetidin-2-imine], the mortality at 200 ppm (Thrips tabaci) was no less than 80%, the percent control (mortality or growth inhibition) at 200 ppm (Plutella xylostella) was no less than 80% and the control at 200 ppm (Spodoptera littoralis) was no less than 80%.
Compound Cc1cs/c(=N\c2ccc3cc(-c4ncn(-c5ccc(OC(F)(F)F)cc5)n4)ccc3n2)n1-c1ccccc1C(C)C [Compound P2.2, 3-(2-isopropylphenyl)-4-methyl-N-[6-[1-[4-(trifluoromethoxy)phenyl]-1,2,4-triazol-3-yl]-2-quinolyl]thiazol-2-imine] has a percent control (mortality or growth inhibition) at 200 ppm (Plutella xylostella) of no less than 80%, a mortality at 200 ppm [1] of no less than 80% and a percent effect (mortality or growth inhibition) at 200 ppm (Diabrotica balteata) of no less than 80%. The control at 200 ppm (Spodoptera littoralis) was no less than 80%.
Compound Cc1cccc(C)c1/N=C1/SCN1c1nc2ccc(-c3ncn(-c4ccc(OC(F)(F)F)cc4)n3)cc2s1 [Compound P2.15, N-(2,6-dimethylphenyl)-3-[6-[1-[4-(trifluoromethoxy)phenyl]-1,2,4-triazol-3-yl]-1,3-benzothiazol-2-yl]-1,3-thiazetidin-2-imine] has a melting point greater than 250 °C.
Cc1cccc(C)c1NC(=O)Nc1ncc2cc(-c3ncn(-c4ccc(OC(F)(F)F)cc4)n3)ccc2n1 [Compound P2.6, 1-(2,6-dimethylphenyl)-3-[6-[1-[4-(trifluoromethoxy)phenyl]-1,2,4-triazol-3-yl]quinazolin-2-yl]urea] gave a melting point of 247 to 249 °C.
Compound Cc1cccc(C)c1N1C(=O)CS/C1=N\c1ncc2cc(-c3ncn(-c4ccc(OC(F)(F)F)cc4)n3)ccc2n1 [Compound P2.9, (2Z)-3-(2,6-dimethylphenyl)-2-[6-[1-[4-(trifluoromethoxy)phenyl]-1,2,4-triazol-3-yl]quinazolin-2-yl]imino-thiazolidin-4-one] has a percent control (mortality or growth inhibition) at 200 ppm (Plutella xylostella) of no less than 80%, a percent effect (mortality or growth inhibition) at 200 ppm (Diabrotica balteata) of no less than 80% and a control at 200 ppm (Spodoptera littoralis) of no less than 80%.
For Cc1cccc(C)c1NC(=S)Nc1nc2ccc(-c3ncn(-c4ccc(OC(F)(F)F)cc4)n3)cc2s1 [Compound P2.17, 1-(2,6-dimethylphenyl)-3-[6-[1-[4-(trifluoromethoxy)phenyl]-1,2,4-triazol-3-yl]-1,3-benzothiazol-2-yl]thiourea], the percent control (mortality or growth inhibition) at 200 ppm (Plutella xylostella) was no less than 80%, the percent effect (mortality or growth inhibition) at 200 ppm (Euschistus heros) was no less than 80% and the percent effect (mortality or growth inhibition) at 200 ppm (Diabrotica balteata) was no less than 80%. For the same compound, the control at 200 ppm (Spodoptera littoralis) was no less than 80%.
CC(C)c1ccccc1N1C(=O)CS/C1=N\c1ccc2cc(-c3ncn(-c4ccc(OC(F)(F)F)cc4)n3)ccc2n1 [Compound P2.3, (2Z)-3-(2-isopropylphenyl)-2-[[6-[1-[4-(trifluoromethoxy)phenyl]-1,2,4-triazol-3-yl]-2-quinolyl]imino]thiazolidin-4-one] showed a percent control (mortality or growth inhibition) at 200 ppm (Plutella xylostella) of no less than 80%, a mortality at 200 ppm [1] of no less than 80% and a percent effect (mortality or growth inhibition) at 200 ppm (Diabrotica balteata) of no less than 80%. For the same compound, the control at 200 ppm (Spodoptera littoralis) was no less than 80%.
CC(C)c1ccccc1N1CS/C1=N\c1ccc2cc(-c3ncn(-c4ccc(OC(F)(F)F)cc4)n3)ccc2n1 [Compound P2.1, 3-(2-isopropylphenyl)-N-[6-[1-[4-(trifluoromethoxy)phenyl]-1,2,4-triazol-3-yl]-2-quinolyl]-1,3-thiazetidin-2-imine] gave a percent control (mortality or growth inhibition) at 200 ppm (Plutella xylostella) of no less than 80%, a mortality at 200 ppm [1] of no less than 80% and a percent effect (mortality or growth inhibition) at 200 ppm (Diabrotica balteata) of no less than 80%. It also gave a control at 200 ppm (Spodoptera littoralis) of no less than 80%.
In the case of Cc1cccc(C)c1N1CS/C1=N\c1cnc2cc(-c3ncn(-c4ccc(OC(F)(F)F)cc4)n3)ccc2n1 [Compound P2.12, 3-(2,6-dimethylphenyl)-N-[6-[1-[4-(trifluoromethoxy)phenyl]-1,2,4-triazol-3-yl]quinoxalin-2-yl]-1,3-thiazetidin-2-imine], the mortality at 200 ppm [1] was no less than 80% and the control at 200 ppm (Spodoptera littoralis) was no less than 80%.
With Cc1cccc(C)c1NC(=S)Nc1cnc2cc(-c3ncn(-c4ccc(OC(F)(F)F)cc4)n3)ccc2n1 [Compound P2.11, 1-(2,6-dimethylphenyl)-3-[6-[1-[4-(trifluoromethoxy)phenyl]-1,2,4-triazol-3-yl]quinoxalin-2-yl]thiourea] the percent control (mortality or growth inhibition) at 200 ppm (Plutella xylostella) was no less than 80%, the percent effect (mortality or growth inhibition) at 200 ppm (Diabrotica balteata) was no less than 80% and the control at 200 ppm (Spodoptera littoralis) was no less than 80%.
With Cc1cccc(C)c1NC(=S)Nc1ccc2cc(-c3ncn(-c4ccc(OC(F)(F)F)cc4)n3)ccc2c1 [Compound P2.13, 1-(2,6-dimethylphenyl)-3-[6-[1-[4-(trifluoromethoxy)phenyl]-1,2,4-triazol-3-yl]-2-naphthyl]thiourea] the percent control (mortality or growth inhibition) at 200 ppm (Plutella xylostella) was no less than 80%, the percent effect (mortality or growth inhibition) at 200 ppm (Diabrotica balteata) was no less than 80% and the control at 200 ppm (Spodoptera littoralis) was no less than 80%.
For CC(C)c1ccccc1/N=C1/SCC(=O)N1c1ccc2cc(-c3ncn(-c4ccc(OC(F)(F)F)cc4)n3)ccc2n1 [Compound P2.4, (2E)-2-(2-isopropylphenyl)imino-3-[6-[1-[4-(trifluoromethoxy)phenyl]-1,2,4-triazol-3-yl]-2-quinolyl]thiazolidin-4-one], the mortality at 200 ppm (Thrips tabaci) was no less than 80%, the percent control (mortality or growth inhibition) at 200 ppm (Plutella xylostella) was no less than 80% and the percent effect (mortality or growth inhibition) at 200 ppm (Euschistus heros) was no less than 80%. The mortality at 200 ppm [1] was no less than 80%, the percent effect (mortality or growth inhibition) at 200 ppm (Diabrotica balteata) was no less than 80% and the control at 200 ppm (Spodoptera littoralis) was no less than 80%.
